Species on record: Rattus norvegicus
Assay: DrugMatrix - Regimen: Daily Repeat
Format: toxicity, organism-based, Sprague-Dawley
Parameters: regimen Daily Repeat, gender Male, age 6-8 weeks
Details: in vivo, po, route oral GAVAGE, […]; for ABSOLUTE BASOPHIL / ABSOLUTE EOSINOPHIL / ABSOLUTE LYMPHOCYTE / ABSOLUTE MONOCYTE / ABSOLUTE SEGMENTED NEUTROPHIL / BASOPHIL / EOSINOPHIL / ERYTHROCYTE COUNT / HEMATOCRIT / HEMOGLOBIN / LEUKOCYTE COUNT / LYMPHOCYTE / MEAN CORPUSCULAR HEMOGLOBIN / MEAN CORPUSCULAR HEMOGLOBIN CONCENTRATION / MEAN CORPUSCULAR VOLUME / MONOCYTE / NEUTROPHIL / NUCLEATED RED BLOOD CELLS / PLATELET COUNT: tissue Blood; for ALANINE AMINOTRANSFERASE / ALBUMIN / ALKALINE PHOSPHATASE / ASPARTATE AMINOTRANSFERASE / BLOOD UREA NITROGEN / CARBON DIOXIDE / CHLORIDE / CHOLESTEROL / CREATINE PHOSPHOKINASE / CREATININE / GLUCOSE / LACTATE DEHYDROGENASE / LIPASE / PHOSPHORUS / POTASSIUM / SODIUM / TOTAL BILIRUBIN / TOTAL PROTEIN / URIC ACID: tissue Plasma
[1] = 500 mg/kg, 72 h, dose level Low, time 3 day
[2] = 500 mg/kg, 120 h, dose level Low, time 5 day
[3] = 1100 mg/kg, 72 h, dose level High, time 3 day
[4] = 1100 mg/kg, 120 h, dose level High, time 5 day

CCOC(=O)c1ccc(N)cc1 [BENZOCAINE]
ABSOLUTE BASOPHIL [1]: 0 CELLS/uL
ABSOLUTE EOSINOPHIL [1]: 229 CELLS/uL
ABSOLUTE LYMPHOCYTE [1]: 17082.33 CELLS/uL
ABSOLUTE MONOCYTE [1]: 210.67 CELLS/uL
ABSOLUTE SEGMENTED NEUTROPHIL [1]: 1644.67 CELLS/uL
BASOPHIL [1]: 0%
EOSINOPHIL [1]: 1%
ERYTHROCYTE COUNT [1]: 5.35 x10E6/uL
HEMATOCRIT [1]: 35.4%
HEMOGLOBIN [1]: 14.2 G/DL
LEUKOCYTE COUNT [1]: 19.17 x10E3/uL
LYMPHOCYTE [1]: 89.33%
MEAN CORPUSCULAR HEMOGLOBIN [1]: 26.5 pg
MEAN CORPUSCULAR HEMOGLOBIN CONCENTRATION [1]: 40.13 G/DL
MEAN CORPUSCULAR VOLUME [1]: 66.13 fL
MONOCYTE [1]: 1%
NEUTROPHIL [1]: 8.67%
NUCLEATED RED BLOOD CELLS [1]: 0 /100WBC
PLATELET COUNT [1]: 1441 x10E3/uL
ALANINE AMINOTRANSFERASE [1]: 64 u/L
ALBUMIN [1]: 4.2 G/DL
ALKALINE PHOSPHATASE [1]: 444.67 u/L
ASPARTATE AMINOTRANSFERASE [1]: 108.33 u/L
BLOOD UREA NITROGEN [1]: 9.67 mg/dL
CARBON DIOXIDE [1]: 29 mmol/L
CHLORIDE [1]: 102.33 MEQ/L
CHOLESTEROL [1]: 59.33 mg/dL
CREATINE PHOSPHOKINASE [1]: 648.33 u/L
CREATININE [1]: 0.35 mg/dL
GLUCOSE [1]: 175.67 mg/dL
LACTATE DEHYDROGENASE [1]: 218.67 u/L
LIPASE [1]: 12.33 u/L
PHOSPHORUS [1]: 12.33 mg/dL
POTASSIUM [1]: 6.58 MEQ/L
SODIUM [1]: 144.73 MEQ/L
TOTAL BILIRUBIN [1]: 0.2 mg/dL
TOTAL PROTEIN [1]: 5.7 G/DL
URIC ACID [1]: 1.73 mg/dL
ABSOLUTE BASOPHIL [2]: 0 CELLS/uL
ABSOLUTE EOSINOPHIL [2]: 0 CELLS/uL
ABSOLUTE LYMPHOCYTE [2]: 16058.33 CELLS/uL
ABSOLUTE MONOCYTE [2]: 107.33 CELLS/uL
ABSOLUTE SEGMENTED NEUTROPHIL [2]: 2201 CELLS/uL
BASOPHIL [2]: 0%
EOSINOPHIL [2]: 0%
ERYTHROCYTE COUNT [2]: 4.82 x10E6/uL
HEMATOCRIT [2]: 32.4%
HEMOGLOBIN [2]: 13.2 G/DL
LEUKOCYTE COUNT [2]: 18.37 x10E3/uL
LYMPHOCYTE [2]: 87%
MEAN CORPUSCULAR HEMOGLOBIN [2]: 27.47 pg
MEAN CORPUSCULAR HEMOGLOBIN CONCENTRATION [2]: 40.77 G/DL
MEAN CORPUSCULAR VOLUME [2]: 67.4 fL
MONOCYTE [2]: 0.67%
NEUTROPHIL [2]: 12.33%
NUCLEATED RED BLOOD CELLS [2]: 0.67 /100WBC
PLATELET COUNT [2]: 1368 x10E3/uL
ALANINE AMINOTRANSFERASE [2]: 53.67 u/L
ALBUMIN [2]: 4.13 G/DL
ALKALINE PHOSPHATASE [2]: 386 u/L
ASPARTATE AMINOTRANSFERASE [2]: 98 u/L
BLOOD UREA NITROGEN [2]: 13 mg/dL
CARBON DIOXIDE [2]: 29 mmol/L
CHLORIDE [2]: 104.33 MEQ/L
CHOLESTEROL [2]: 48.33 mg/dL
CREATINE PHOSPHOKINASE [2]: 364.67 u/L
CREATININE [2]: 0.17 mg/dL
GLUCOSE [2]: 150 mg/dL
LACTATE DEHYDROGENASE [2]: 646.67 u/L
LIPASE [2]: 11 u/L
PHOSPHORUS [2]: 10.6 mg/dL
POTASSIUM [2]: 6.6 MEQ/L
SODIUM [2]: 143.27 MEQ/L
TOTAL BILIRUBIN [2]: 0.3 mg/dL
TOTAL PROTEIN [2]: 5.77 G/DL
URIC ACID [2]: 1.63 mg/dL
ABSOLUTE BASOPHIL [3]: 0 CELLS/uL
ABSOLUTE EOSINOPHIL [3]: 55.33 CELLS/uL
ABSOLUTE LYMPHOCYTE [3]: 17429 CELLS/uL
ABSOLUTE MONOCYTE [3]: 386.67 CELLS/uL
ABSOLUTE SEGMENTED NEUTROPHIL [3]: 3095.67 CELLS/uL
BASOPHIL [3]: 0%
EOSINOPHIL [3]: 0.33%
ERYTHROCYTE COUNT [3]: 4.95 x10E6/uL
HEMATOCRIT [3]: 33.3%
HEMOGLOBIN [3]: 13.8 G/DL
LEUKOCYTE COUNT [3]: 20.97 x10E3/uL
LYMPHOCYTE [3]: 81.67%
MEAN CORPUSCULAR HEMOGLOBIN [3]: 27.93 pg
MEAN CORPUSCULAR HEMOGLOBIN CONCENTRATION [3]: 41.43 G/DL
MEAN CORPUSCULAR VOLUME [3]: 67.4 fL
MONOCYTE [3]: 1.33%
NEUTROPHIL [3]: 16.67%
NUCLEATED RED BLOOD CELLS [3]: 0.33 /100WBC
PLATELET COUNT [3]: 1424.33 x10E3/uL
ALANINE AMINOTRANSFERASE [3]: 72 u/L
ALBUMIN [3]: 4.03 G/DL
ALKALINE PHOSPHATASE [3]: 546.33 u/L
ASPARTATE AMINOTRANSFERASE [3]: 93.33 u/L
BLOOD UREA NITROGEN [3]: 10.33 mg/dL
CARBON DIOXIDE [3]: 31 mmol/L
CHLORIDE [3]: 104.33 MEQ/L
CHOLESTEROL [3]: 61 mg/dL
CREATINE PHOSPHOKINASE [3]: 361.67 u/L
CREATININE [3]: 0.14 mg/dL
GLUCOSE [3]: 138.67 mg/dL
LACTATE DEHYDROGENASE [3]: 171 u/L
LIPASE [3]: 11.33 u/L
PHOSPHORUS [3]: 11.13 mg/dL
POTASSIUM [3]: 6.37 MEQ/L
SODIUM [3]: 144.8 MEQ/L
TOTAL BILIRUBIN [3]: 0.3 mg/dL
TOTAL PROTEIN [3]: 5.57 G/DL
URIC ACID [3]: 1.27 mg/dL
ABSOLUTE BASOPHIL [4]: 0 CELLS/uL
ABSOLUTE EOSINOPHIL [4]: 0 CELLS/uL
ABSOLUTE LYMPHOCYTE [4]: 14423.33 CELLS/uL
ABSOLUTE MONOCYTE [4]: 145 CELLS/uL
ABSOLUTE SEGMENTED NEUTROPHIL [4]: 2531.67 CELLS/uL
BASOPHIL [4]: 0%
EOSINOPHIL [4]: 0%
ERYTHROCYTE COUNT [4]: 4.51 x10E6/uL
HEMATOCRIT [4]: 32.4%
HEMOGLOBIN [4]: 13.97 G/DL
LEUKOCYTE COUNT [4]: 17.1 x10E3/uL
LYMPHOCYTE [4]: 84.33%
MEAN CORPUSCULAR HEMOGLOBIN [4]: 31.07 pg
MEAN CORPUSCULAR HEMOGLOBIN CONCENTRATION [4]: 43.13 G/DL
MEAN CORPUSCULAR VOLUME [4]: 71.97 fL
MONOCYTE [4]: 1%
NEUTROPHIL [4]: 14.67%
NUCLEATED RED BLOOD CELLS [4]: 1.33 /100WBC
PLATELET COUNT [4]: 1244.67 x10E3/uL
ALANINE AMINOTRANSFERASE [4]: 56.67 u/L
ALBUMIN [4]: 4.2 G/DL
ALKALINE PHOSPHATASE [4]: 347.67 u/L
ASPARTATE AMINOTRANSFERASE [4]: 84 u/L
BLOOD UREA NITROGEN [4]: 13.33 mg/dL
CARBON DIOXIDE [4]: 32.67 mmol/L
CHLORIDE [4]: 102.33 MEQ/L
CHOLESTEROL [4]: 58 mg/dL
CREATINE PHOSPHOKINASE [4]: 180 u/L
CREATININE [4]: 0.13 mg/dL
GLUCOSE [4]: 145.33 mg/dL
LACTATE DEHYDROGENASE [4]: 146.67 u/L
LIPASE [4]: 11 u/L
PHOSPHORUS [4]: 11.13 mg/dL
POTASSIUM [4]: 6.79 MEQ/L
SODIUM [4]: 143.83 MEQ/L
TOTAL BILIRUBIN [4]: 0.37 mg/dL
TOTAL PROTEIN [4]: 5.9 G/DL
URIC ACID [4]: 1.53 mg/dL
